Results reported in US6310095A, “Inhibitors of protein isoprenyl transferases” (University of Pittsburgh, priority 1998, dated 2001).
Where a name gives a salt, the structure may show the parent alone. Read-outs that look alike come from different tables or passages of the source. Each block holds one compound with its values, some of them ahead of it.

Target: T1, protein farnesyltransferase (Rattus norvegicus, UniProt Q02293+Q04631)
T1 construct: Rat brain protein farnesyltransferase activity is measured; from tissue; host or cells: rat brain; purified according to Reiss et al., Cell 62:81-88 (1990), steps one through three
Assay: in vitro inhibition of protein farnesyltransferase (scintillation proximity assay, biotin-K Ras B fragment)
Type: biochemical
Settings: for inhibition at 10 µM: at 1 × 10^-5 M
How it was run: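 Rat brain enzyme, purified through three steps, in a scintillation proximity assay kit with biotin-K Ras B fragment substrate at 0.1 mM final. Value is % inhibition of farnesylation.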

[1] = at 1 × 10^-8 M, read-out: % inhibition of farnesyltransferase
[2] = at 1 × 10^-6 M, read-out: % inhibition of farnesyltransferase

SMILES: CSCC[C@H](NC(=O)c1ccc(COCc2cnc(-c3cccc(F)c3)s2)cc1-c1ccccc1C)C(=O)[O-].[Li+] [Example 898]
% inhibition of farnesyltransferase (at 1 × 10^-8 M): 82%

SMILES: CSCC[C@H](NC(=O)c1ccc(COCC2CCOC2)cc1-c1ccccc1)C(=O)O (some centres unmarked) [Example 287]
% inhibition of farnesyltransferase (at 1 × 10^-6 M): 24%

SMILES: CSCC[C@H](NC(=O)c1ccc(COCc2cnc(-c3ccccc3Cl)s2)cc1-c1ccccc1C)C(=O)[O-].[Li+] [Example 897]
% inhibition of farnesyltransferase (at 1 × 10^-8 M): 76%

SMILES: CSCC[C@H](NC(=O)c1ccc(CN(Cc2ccccc2)c2cccc([N+](=O)[O-])c2)cc1-c1ccccc1C)C(=O)O [Example 842, N-[4-(N-benzyl-N-(3-nitrophenyl)aminomethyl)-2-(2-methylphenyl)benzoyl]methionine lithium salt]
inhibition at 0.01 µM (read-out: % inhibition of farnesyltransferase): 88%

SMILES: CSCC[C@H](NC(=O)c1ccc(COCc2cnc(-c3ccc(Cl)cc3)s2)cc1-c1ccccc1C)C(=O)[O-].[Li+] [Example 901]
% inhibition of farnesyltransferase (at 1 × 10^-8 M): 84%

SMILES: CSCC[C@H](NC(=O)c1ccc(OCCCc2ccccc2)cc1-c1ccccc1C)C(=O)[O-].[Li+] [Example 879]
% inhibition of farnesyltransferase (at 1 × 10^-6 M): 95%

SMILES: CSCC[C@H](NC(=O)c1ccc(COCCc2ccc(-c3ccc(F)cc3)o2)cc1-c1ccccc1C)C(=O)[O-].[Li+] [Example 535]
% inhibition of farnesyltransferase (at 1 × 10^-7 M): 89%

SMILES: CSCCC(NC(=O)c1ccc(NC(=O)Cc2cscn2)cc1-c1ccccc1)C(=O)O (centres unmarked) [Example 162, [4-(thiazo-4-ylmethylcarbonyl)amino-2-phenylbenzoyl]methionine]
inhibition at 1 µM [2]: 12%

SMILES: CSCC[C@H](NC(=O)c1ccc(COCc2ccc(-c3ccc(F)cc3)o2)cc1-c1cccc2ccccc12)C(=O)[O-].[Li+] [Example 868]
% inhibition of farnesyltransferase (at 1 × 10^-6 M): 89%

SMILES: CCCCC(CCCC)OCc1ccc(C(=O)N[C@@H](CCSC)C(=O)[O-])c(-c2ccccc2C)c1.[Li+] [Example 942]
% inhibition of farnesyltransferase (at 1 × 10^-8 M): 58%

SMILES: CSCC[C@H](NC(=O)c1ccc(COCc2ccccc2)cc1-c1ccccc1C)C(=O)[O-].[Li+] [Example 571]
% inhibition of farnesyltransferase (at 1 × 10^-7 M): 88%

SMILES: CSCC[C@H](NC(=O)c1ccc(COCCc2ccc3ccccc3c2)cc1-c1ccccc1C)C(=O)[O-].[Li+] [Example 593]
% inhibition of farnesyltransferase (at 1 × 10^-7 M): 86%

SMILES: CSCC[C@H](NC(=O)c1ccc(NC(=O)[C@@H]2CSCN2)cc1-c1ccccc1)C(=O)O [Example 165, [4-((R)-thiazolidin-4-ylcarbonyl)amino-2-phenylbenzoyl]methionine]
inhibition at 1 µM [2]: 74%

SMILES: CSCC[C@H](NC(=O)c1ccc(OCCC2CCCCC2)cc1-c1ccccc1C)C(=O)[O-].[Li+] [Example 552]
% inhibition of farnesyltransferase (at 1 × 10^-6 M): 88%

SMILES: Cc1ccccc1-c1cc(CN(C)C(C)(C)CC2CCCCC2)ccc1C(=O)N[C@@H](CCS(C)(=O)=O)C(=O)O [Example 314]
% inhibition of farnesyltransferase (at 1 × 10^-6 M): 97%

The next lines start with the values.

inhibition at 0.01 µM [1]: 80%
SMILES: CCCCS(=O)(=O)N(Cc1ccc(C(=O)N[C@@H](CCSC)C(=O)O)c(-c2ccccc2C)c1)CC1CCCCC1 [Example 996, N-[4-(N-cyclohexylmethyl-N-butanesulfonylaminomethyl)-2-(2-methylphenyl)benzoyl]methionine]

% inhibition of farnesyltransferase (at 1 × 10^-6 M): 90%
SMILES: CSCC[C@H](NC(=O)c1ccc(COC2CCN(Cc3ccccc3)CC2)cc1-c1ccccc1C)C(=O)O [Example 807]

inhibition at 0.1 µM (at 1 × 10^-7 M, read-out: % inhibition of farnesyltransferase): 90%
SMILES: CSCC[C@H](NC(=O)c1ccc(CN(c2ccccc2)S(=O)(=O)c2ccccc2)cc1-c1ccccc1C)C(=O)O [Example 769, N-[4-N-(N-phenyl-N-benzenesulfonylaminomethyl)-2-(2-methylphenyl)benzoyl]methionine lithium salt]

% inhibition of farnesyltransferase (at 1 × 10^-6 M): 98%
SMILES: CSCC[C@H](NC(=O)c1ccc(CN(C2CC2)C2(Cc3ccccc3)CCC2)cc1-c1ccccc1C)C(=O)O [Example 329]

inhibition at 1 µM [2]: 84%
SMILES: CNCC(=O)Nc1ccc(C(=O)N[C@@H](CCSC)C(=O)O)c(-c2ccccc2)c1 [Example 749]

% inhibition of farnesyltransferase (at 1 × 10^-8 M): 95%
SMILES: CSCC[C@H](NC(=O)c1ccc(CO[C@@H](CC2CCCCC2)CN2CCOCC2)cc1-c1ccccc1C)C(=O)O [Example 885]

inhibition at 1 µM [2]: 96%
SMILES: CSCC[C@H](NC(=O)c1ccc(CN(CCc2ccccc2)C(C)C)cc1-c1ccccc1C)C(=O)O [Example 835, N-[14-N-(2-phenylethyl)-N-isoprolpylaminomethyl-2-(2-methylphenyl)benzoyl]methionine lithium salt]

% inhibition of farnesyltransferase (at 1 × 10^-6 M): 88%
SMILES: CSCC[C@H](NC(=O)c1ccc(C[C@H]2CC[C@@H](c3ccccc3)CC2)cc1-c1ccccc1C)C(=O)O [Example 790]

% inhibition of farnesyltransferase (at 1 × 10^-7 M): 84%
SMILES: CSCC[C@H](NC(=O)c1ccc(CSc2ncnc3[nH]ncc23)cc1-c1ccccc1C)C(=O)O [Example 746]

% inhibition of farnesyltransferase (at 1 × 10^-6 M): 98%
SMILES: CSCC[C@H](NC(=O)c1ccc(CN(C(C)C)C(C)(C)CC2CCCCC2)cc1-c1ccccc1C)C(=O)O [Example 318]

% inhibition of farnesyltransferase (at 1 × 10^-6 M): 88%
SMILES: CSCC[C@H](NC(=O)c1ccc(CS[C@H](CO)Cc2ccccc2)cc1-c1ccccc1)C(=O)O [Example 545]

inhibition at 0.01 µM [1]: 92%
SMILES: CSCC[C@H](NC(=O)c1ccc(CN[C@@H](CC2CCCCC2)C(=O)N2CCCCC2)cc1-c1ccccc1C)C(=O)O [Example 887, N-[4-N-(3-Cyclohexyl-1-oxo-1-piperidin-1-ylpropan-2-yl)aminomethyl-2-(2-methylphenyl)benzoyl]-methionine lithium salt]

inhibition at 1 µM [2]: 68%
SMILES: CSCC[C@H](NC(=O)c1ccc(CNC(CO)Cc2ccc(Cl)cc2)cc1-c1ccccc1)C(=O)O (some centres unmarked) [Example 662]

% inhibition of farnesyltransferase (at 1 × 10^-8 M): 93%
SMILES: CCSC[C@H](CC1CCCCC1)OCc1ccc(C(=O)N[C@@H](CCSC)C(=O)O)c(-c2ccccc2C)c1 [Example 606]

% inhibition of farnesyltransferase (at 1 × 10^-7 M): 93%
SMILES: CSCC[C@H](NC(=O)c1ccc(CSc2ccc3ccccc3c2)cc1-c1ccccc1C)C(=O)O [Example 551]

% inhibition of farnesyltransferase (at 1 × 10^-6 M): 89%
SMILES: CSCC[C@H](NC(=O)c1ccc(/C=C/c2ccc(Oc3ccccc3)nn2)cc1-c1ccccc1C)C(=O)O [Example 810]

% inhibition of farnesyltransferase (at 1 × 10^-6 M): 26%
SMILES: CSCC[C@H](NC(=O)c1ccc(CN(C(C)C)C2(CC3CCCCC3)CCC2)cc1-c1ccccc1C)C(=O)O [Example 332]

inhibition at 10 µM: 49%
SMILES: Cc1ccccc1-c1cc(CN(Cc2ccccc2)c2cccnc2)ccc1C(=O)N[C@@H](CCS(C)(=O)=O)C(=O)O [Example 759, (2S)-2-N-[4-(N-benzyl-N-3-pyridylaminomethyl)-2-(2-methylphenyl)benzoyl]amino-4-methanesulfonylbutanoic acid]

inhibition at 10 µM: 40%
SMILES: CSCC[C@H](NC(=O)c1ccc(CNc2cccc(C)c2)cc1-c1ccccc1)C(=O)O [Example 674]

% inhibition of farnesyltransferase (at 1 × 10^-8 M): 93%
SMILES: CSCC[C@H](NC(=O)c1ccc(CN2CCC[C@H]2COCC2CCCCC2)cc1-c1ccccc1C)C(=O)O [Example 992]

inhibition at 0.01 µM [1]: 71%
SMILES: CSCC[C@H](NC(=O)c1ccc(CN(c2ccccc2)S(=O)(=O)c2ccc(C(F)(F)F)cc2)cc1-c1ccccc1C)C(=O)O [Example 780, N-[4-N-(N-phenyl-N-(4-trifluoromethylbenzenesulfonyl)aminomethyl)-2-(2-methylphenal)-benzoyl]methionine lithium salt]

% inhibition of farnesyltransferase (at 1 × 10^-6 M): 92%
SMILES: CSCC[C@H](NC(=O)c1ccc(OCCC23CC4CC(CC(C4)C2)C3)cc1-c1ccccc1C)C(=O)O [Example 553]

% inhibition of farnesyltransferase (at 1 × 10^-6 M): 91%
SMILES: CSCC[C@H](NC(=O)c1ccc(OC/C=C(\C)CC/C=C(\C)CCC=C(C)C)cc1-c1ccccc1C)C(=O)O [Example 547]
